Assay results published in PubChem BioAssay (NCI).
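Step 1: Grow cells in 96-well plates. Step 2: Expose to compound for 48 hours at 5 concentrations. Step 3: Interpolate endpoints linearly; if unreached, use highest concentration. Abbreviation: GI50, concentration required for 50% inhibition of growth. The concentration for full growth arrest is given as TGI.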

How the values were obtained:
Test in all cases: NCI anticancer screen, dose series, 48 h
UO-31 renal = test system: UO-31 renal
SF-295 CNS = test system: SF-295 CNS
ACHN renal = test system: ACHN renal
SN12C renal = test system: SN12C renal
MDA-MB-231 breast = test system: MDA-MB-231 breast
K-562 leukemia = test system: K-562 leukemia
HCT-15 colon = test system: HCT-15 colon
MCF7 breast = test system: MCF7 breast
HL-60(TB) leukemia = test system: HL-60(TB) leukemia
HCC-2998 colon = test system: HCC-2998 colon
NCI-H522 lung = test system: NCI-H522 lung
786-0 renal = test system: 786-0 renal
HS 578T breast = test system: HS 578T breast
OVCAR-4 ovarian = test system: OVCAR-4 ovarian
SK-MEL-2 melanoma = test system: SK-MEL-2 melanoma
RXF 393 renal = test system: RXF 393 renal
IGROV1 ovarian = test system: IGROV1 ovarian
PC-3 prostate = test system: PC-3 prostate
BT-549 breast = test system: BT-549 breast
TK-10 renal = test system: TK-10 renal
OVCAR-8 ovarian = test system: OVCAR-8 ovarian
HOP-92 NSCLC = test system: HOP-92 NSCLC
SF-539 CNS = test system: SF-539 CNS
SK-MEL-5 melanoma = test system: SK-MEL-5 melanoma
SK-MEL-28 melanoma = test system: SK-MEL-28 melanoma
MOLT-4 leukemia = test system: MOLT-4 leukemia
KM12 colon = test system: KM12 colon
A498 renal = test system: A498 renal
MDA-MB-435 = test system: MDA-MB-435
DU-145 prostate = test system: DU-145 prostate
EKVX NSCLC = test system: EKVX NSCLC
MALME-3M melanoma = test system: MALME-3M melanoma
SNB-19 CNS = test system: SNB-19 CNS
NCI-H23 lung = test system: NCI-H23 lung
NCI-H226 lung = test system: NCI-H226 lung
SW-620 colon = test system: SW-620 colon
A549 NSCLC = test system: A549 NSCLC
U251 CNS = test system: U251 CNS
UACC-257 melanoma = test system: UACC-257 melanoma
COLO 205 colon = test system: COLO 205 colon
T-47D breast = test system: T-47D breast
HCT-116 colon = test system: HCT-116 colon
SF-268 CNS = test system: SF-268 CNS
RPMI-8226 leukemia = test system: RPMI-8226 leukemia
CCRF-CEM leukemia = test system: CCRF-CEM leukemia
SR leukemia = test system: SR leukemia
OVCAR-3 ovarian = test system: OVCAR-3 ovarian
HT29 colon = test system: HT29 colon
NCI-H460 lung = test system: NCI-H460 lung
UACC-62 melanoma = test system: UACC-62 melanoma
SNB-75 CNS = test system: SNB-75 CNS
SK-OV-3 ovarian = test system: SK-OV-3 ovarian
HOP-62 NSCLC = test system: HOP-62 NSCLC
NCI/ADR-RES ovarian = test system: NCI/ADR-RES ovarian
OVCAR-5 ovarian = test system: OVCAR-5 ovarian
LOX IMVI melanoma = test system: LOX IMVI melanoma
CAKI-1 renal = test system: CAKI-1 renal

Structure (SMILES): CCN(CC)c1ccc(/C=N/NC(=O)c2ccc(S(N)(=O)=O)cc2)cc1
- GI50 (UO-31 renal): 487 nM
- TGI (UO-31 renal): 24000 nM
- GI50 (SF-295 CNS): 739 nM
- TGI (SF-295 CNS): 18300 nM
- GI50 (ACHN renal): 605 nM
- TGI (ACHN renal): 22300 nM
- GI50 (SN12C renal): 957 nM
- TGI (SN12C renal): > 100000 nM
- GI50 (MDA-MB-231 breast): 525 nM
- TGI (MDA-MB-231 breast): 64300 nM
- GI50 (K-562 leukemia): 479 nM
- TGI (K-562 leukemia): > 100000 nM
- GI50 (HCT-15 colon): 419 nM
- TGI (HCT-15 colon): 44200 nM
- GI50 (MCF7 breast): 488 nM
- TGI (MCF7 breast): > 100000 nM
- GI50 (HL-60(TB) leukemia): 255 nM
- TGI (HL-60(TB) leukemia): 4380 nM
- GI50 (HCC-2998 colon): 612 nM
- TGI (HCC-2998 colon): 51000 nM
- GI50 (NCI-H522 lung): 403 nM
- TGI (NCI-H522 lung): 23200 nM
- GI50 (786-0 renal): 610 nM
- TGI (786-0 renal): 4670 nM
- GI50 (HS 578T breast): 2370 nM
- TGI (HS 578T breast): 40800 nM
- GI50 (OVCAR-4 ovarian): 397 nM
- TGI (OVCAR-4 ovarian): > 77600 nM
- GI50 (SK-MEL-2 melanoma): 3170 nM
- TGI (SK-MEL-2 melanoma): 20700 nM
- GI50 (RXF 393 renal): 1100 nM
- TGI (RXF 393 renal): 3800 nM
- GI50 (IGROV1 ovarian): 690 nM
- TGI (IGROV1 ovarian): > 100000 nM
- GI50 (PC-3 prostate): 469 nM
- TGI (PC-3 prostate): 73400 nM
- GI50 (BT-549 breast): 1000 nM
- TGI (BT-549 breast): 8290 nM
- GI50 (TK-10 renal): 1760 nM
- TGI (TK-10 renal): 47800 nM
- GI50 (OVCAR-8 ovarian): 406 nM
- TGI (OVCAR-8 ovarian): > 52600 nM
- GI50 (HOP-92 NSCLC): 430 nM
- TGI (HOP-92 NSCLC): 14600 nM
- GI50 (SF-539 CNS): 488 nM
- TGI (SF-539 CNS): 8110 nM
- GI50 (SK-MEL-5 melanoma): 1420 nM
- TGI (SK-MEL-5 melanoma): > 100000 nM
- GI50 (SK-MEL-28 melanoma): 495 nM
- TGI (SK-MEL-28 melanoma): > 67400 nM
- GI50 (MOLT-4 leukemia): 373 nM
- TGI (MOLT-4 leukemia): 15000 nM
- GI50 (KM12 colon): 811 nM
- TGI (KM12 colon): > 63300 nM
- GI50 (A498 renal): 4260 nM
- TGI (A498 renal): 29300 nM
- GI50 (MDA-MB-435): 975 nM
- TGI (MDA-MB-435): > 100000 nM
- GI50 (DU-145 prostate): 828 nM
- TGI (DU-145 prostate): > 58600 nM
- GI50 (EKVX NSCLC): 782 nM
- TGI (EKVX NSCLC): > 82100 nM
- GI50 (MALME-3M melanoma): 856 nM
- TGI (MALME-3M melanoma): 11300 nM
- GI50 (SNB-19 CNS): 1120 nM
- TGI (SNB-19 CNS): > 64800 nM
- GI50 (NCI-H23 lung): 2110 nM
- TGI (NCI-H23 lung): > 100000 nM
- GI50 (NCI-H226 lung): 1390 nM
- TGI (NCI-H226 lung): 23900 nM
- GI50 (SW-620 colon): 597 nM
- TGI (SW-620 colon): > 100000 nM
- GI50 (A549 NSCLC): 1780 nM
- TGI (A549 NSCLC): > 100000 nM
- GI50 (U251 CNS): 268 nM
- TGI (U251 CNS): 18700 nM
- GI50 (UACC-257 melanoma): 869 nM
- TGI (UACC-257 melanoma): 7900 nM
- GI50 (COLO 205 colon): 437 nM
- TGI (COLO 205 colon): 19000 nM
- GI50 (T-47D breast): 686 nM
- TGI (T-47D breast): > 72300 nM
- GI50 (HCT-116 colon): 324 nM
- TGI (HCT-116 colon): 19200 nM
- GI50 (SF-268 CNS): 328 nM
- TGI (SF-268 CNS): 25800 nM
- GI50 (RPMI-8226 leukemia): 2840 nM
- TGI (RPMI-8226 leukemia): 13700 nM
- GI50 (CCRF-CEM leukemia): 178 nM
- TGI (CCRF-CEM leukemia): > 100000 nM
- GI50 (SR leukemia): 83.9 nM
- TGI (SR leukemia): 3070 nM
- GI50 (OVCAR-3 ovarian): 244 nM
- TGI (OVCAR-3 ovarian): > 100000 nM
- GI50 (HT29 colon): 614 nM
- TGI (HT29 colon): 17300 nM
- GI50 (NCI-H460 lung): 510 nM
- TGI (NCI-H460 lung): 10400 nM
- GI50 (UACC-62 melanoma): 499 nM
- TGI (UACC-62 melanoma): 8780 nM
- GI50 (SNB-75 CNS): 496 nM
- TGI (SNB-75 CNS): 5910 nM
- GI50 (SK-OV-3 ovarian): 533 nM
- TGI (SK-OV-3 ovarian): 21400 nM
- GI50 (HOP-62 NSCLC): 338 nM
- TGI (HOP-62 NSCLC): 11900 nM
- GI50 (NCI/ADR-RES ovarian): 3110 nM
- TGI (NCI/ADR-RES ovarian): > 100000 nM
- GI50 (OVCAR-5 ovarian): 2580 nM
- TGI (OVCAR-5 ovarian): > 100000 nM
- GI50 (LOX IMVI melanoma): 271 nM
- TGI (LOX IMVI melanoma): 4510 nM
- GI50 (CAKI-1 renal): 488 nM
- TGI (CAKI-1 renal): 25800 nM
